According to patent publication US20250197387A1, “BCL-XL DEGRADERS AND USES THEREOF” (Kymera Therapeutics, Inc., priority 2021, published 2025):

Experiments:
Assay type in all cases: cell-based
BCL-XL = molecular target: T1, BCL-XL (Homo sapiens, UniProt Q07817); test: Bcl-xL ELISA degradation in MOLT-4 cells, 6 h; conditions: for DC50: read-out: Bcl-xL ELISA in MOLT-4 degradation 6 h: Mean external-Abs DC50
T1 construct: endogenous in cells; host or cells: MOLT-4
Protocol: The letter codes for BCL-XL DC50 include: A (<0.01 μM); B (0.01-0.1 μM); C (>[…]); D (>0.5-1.0 μM); and E (>1.0 μM). The letter codes for Dmax % include A (>75%); B (50 to 75%); C (<50%).

MOLT-4 cells = test: CTG (CellTiter-Glo) cell viability assay, MOLT-4; conditions: Homo sapiens, MOLT-4, 72 h, 3 day incubation, read-out: CTG Cell Viability Assay - MOLT-4 3 day: Average external-IC50
Summary of the method: (§1)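 10,000 cells/well; 9 doses, 1:3 from 10 μM top; 0.2% DMSO; 3 d, 37 °C, 5% CO2; CTG luminescence; IC50 via 3-parameter logistic fit. Letter bins differ: Caki-2 C/D cut at 10.0 μM, MOLT-4 at 3.0 μM.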

Caki-2 cells = test: CTG (CellTiter-Glo) cell viability assay, Caki-2; conditions: Homo sapiens, 72 h, 3 day incubation, read-out: CTG Chempartner - Caki-2 3 day: Average external-IC50
Summary of the method: as §1

T1 sequence (Q07817 whole entry): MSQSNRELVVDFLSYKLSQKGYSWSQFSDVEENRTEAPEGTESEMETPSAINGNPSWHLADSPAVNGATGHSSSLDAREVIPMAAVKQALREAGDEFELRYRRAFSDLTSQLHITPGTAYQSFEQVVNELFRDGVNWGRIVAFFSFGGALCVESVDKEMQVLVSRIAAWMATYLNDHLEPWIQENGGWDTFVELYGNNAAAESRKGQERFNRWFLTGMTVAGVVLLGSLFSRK

Compound | Dmax (BCL-XL) [%] | DC50 (BCL-XL) [nM] | IC50 (MOLT-4 cells) [nM] | IC50 (Caki-2 cells) [nM]
Cc1ncsc1-c1ccc([C@H](C)NC(=O)[C@@H]2C[C@@H](O)CN2C(=O)[C@@H](NC(=O)[C@H]2CC[C@H](N3CCC(S(=O)(=O)NC(=O)c4nc(N5CCc6cccc(C(=O)Nc7nc8ccccc8s7)c6C5)ccc4-c4cnn(CC5CCCCC5)c4C)CC3)CC2)C(C)(C)C)cc1 [I-357] | > 75 | 100 to 500 | 1000 to 3000 | 1000 to 10000
C#Cc1ccc(CNC(=O)[C@@H]2C[C@@H](O)CN2C(=O)[C@@H](NC(=O)C2CN(c3ccc(S(=O)(=O)NC(=O)c4nc(N5CCc6cccc(C(=O)Nc7nc8ccccc8s7)c6C5)ccc4-c4cnn(CC5CCCCC5)c4C)cc3F)C2)C(C)(C)C)cc1 [I-358] | > 75 | 10 to 100 | < 100 | 1000 to 10000
Cc1ncsc1-c1ccc(CNC(=O)[C@@H]2C[C@@H](O)CN2C(=O)[C@@H](NC(=O)[C@H]2CCN(c3ccc(S(=O)(=O)NC(=O)c4nc(N5CCc6cccc(C(=O)Nc7nc8ccccc8s7)c6C5)ccc4-c4cnn(CC5CCCCC5)c4C)cc3)C2)C(C)(C)C)cc1 [I-359] | > 75 | < 10 | < 100 | > 10000
Cc1ncsc1-c1ccc(CNC(=O)[C@@H]2C[C@@H](O)CN2C(=O)[C@@H](NC(=O)C2CCN(c3ccc(S(=O)(=O)NC(=O)c4nc(N5CCc6cccc(C(=O)Nc7nc8ccccc8s7)c6C5)ccc4-c4cnn(CC5CCCCC5)c4C)cc3C#N)CC2)C(C)(C)C)cc1 [I-360] | > 75 | < 10 | 100 to 1000 | > 10000
Cc1ncsc1-c1ccc([C@H](C)NC(=O)[C@@H]2C[C@@H](O)CN2C(=O)[C@@H](NC(=O)C2CCN(CCS(=O)(=O)NC(=O)c3nc(N4CCc5cccc(C(=O)Nc6nc7ccccc7s6)c5C4)ccc3-c3cnn(CC4CCCCC4)c3C)CC2)C(C)(C)C)cc1 [I-373] | > 75 | 10 to 100 | 100 to 1000 | > 10000
Cc1ncsc1-c1ccc(CNC(=O)[C@@H]2C[C@@H](O)CN2C(=O)[C@@H](NC(=O)CCCc2cc(F)cc(S(=O)(=O)NC(=O)c3nc(N4CCc5cccc(C(=O)Nc6nc7ccccc7s6)c5C4)ccc3-c3cnn(CC4CCCCC4)c3C)c2)C(C)(C)C)cc1 [I-374] | > 75 | < 10 | < 100 | 1000 to 10000
C#Cc1ccc(CNC(=O)[C@@H]2C[C@@H](O)CN2C(=O)[C@@H](NC(=O)CCNCCS(=O)(=O)NC(=O)c2nc(N3CCc4cccc(C(=O)Nc5nc6cccnc6s5)c4C3)ccc2-c2cnn(CC3CCCCC3)c2C)C(C)(C)C)cc1 [I-375] | > 75 | 10 to 100 | 1000 to 3000 | > 10000
Cc1ncsc1-c1ccc([C@H](CO)NC(=O)[C@@H]2C[C@@H](O)CN2C(=O)[C@@H](NC(=O)CCNCCS(=O)(=O)NC(=O)c2nc(N3CCc4cccc(C(=O)Nc5nc6cccnc6s5)c4C3)ccc2-c2cnn(CC3CCCCC3)c2C)C(C)(C)C)cc1 [I-377] | > 75 | < 10 | 1000 to 3000 | > 10000

Second part, led by results:

Dmax (BCL-XL) [%] | DC50 (BCL-XL) [nM] | IC50 (MOLT-4 cells) [nM] | Compound | IC50 (Caki-2 cells) [nM]
> 75 | 10 to 100 | 100 to 1000 | C#Cc1ccc(CNC(=O)[C@@H]2C[C@@H](O)CN2C(=O)[C@@H](NC(=O)CCCS(=O)(=O)NC(=O)c2nc(N3CCc4cccc(C(=O)Nc5nc6cccnc6s5)c4C3)ccc2-c2cnn(CC3CCCCC3)c2C)C(C)(C)C)cc1 [I-362] | > 10000
> 75 | 10 to 100 | < 100 | Cc1ncsc1-c1ccc([C@H](C)NC(=O)[C@@H]2C[C@@H](O)CN2C(=O)[C@@H](NC(=O)CCCCCS(=O)(=O)NC(=O)c2nc(N3CCc4cccc(C(=O)Nc5nc6cccnc6s5)c4C3)ccc2-c2cnn(CC3CCCCC3)c2C)C(C)(C)C)cc1 [I-363] | > 10000
> 75 | < 10 | < 100 | C#Cc1ccc([C@H](C)NC(=O)[C@@H]2C[C@@H](O)CN2C(=O)[C@@H](NC(=O)CCCCCS(=O)(=O)NC(=O)c2nc(N3CCc4cccc(C(=O)Nc5nc6cccnc6s5)c4C3)ccc2-c2cnn(CC3CCCCC3)c2C)C(C)(C)C)cc1 [I-364] | > 10000
> 75 | 10 to 100 | < 100 | Cc1ncsc1-c1ccc([C@H](C)NC(=O)[C@@H]2C[C@@H](O)CN2C(=O)[C@@H](NC(=O)CCCCCS(=O)(=O)NC(=O)c2nc(N3CCc4cccc(C(=O)Nc5nc6ccccc6s5)c4C3)ccc2-c2cnn(CC3CCCCC3)c2C)C(C)(C)CCO)cc1 [I-365] | > 10000
> 75 | 100 to 500 | 1000 to 3000 | Cc1ncsc1-c1ccc([C@H](C)NC(=O)[C@@H]2C[C@@H](O)CN2C(=O)[C@H](NC(=O)CCCCCS(=O)(=O)NC(=O)c2nc(N3CCc4cccc(C(=O)Nc5nc6ccccc6s5)c4C3)ccc2-c2cnn(CC3CCCCC3)c2C)C(C)(C)CCO)cc1 [I-366] | > 10000
> 75 | 10 to 100 | < 100 | Cc1cc(N(C)c2ccc(-c3cnn(CC45CC6CC(CC(C6)C4)C5)c3C)c(C(=O)NS(=O)(=O)CCCCCC(=O)N[C@H](C(=O)N3C[C@H](O)C[C@H]3C(=O)NCc3ccc(-c4scnc4C)cc3)C(C)(C)C)n2)nnc1Nc1nc2ccccc2s1 [I-367] | > 10000
> 75 | 10 to 100 | < 100 | C#Cc1ccc([C@H](C)NC(=O)[C@@H]2C[C@@H](O)CN2C(=O)[C@@H](NC(=O)CCCCS(=O)(=O)NC(=O)c2nc(N(C)c3cc(C)c(Nc4nc5ccccc5s4)nn3)ccc2-c2cnn(CC34CC5CC(CC(C5)C3)C4)c2C)C(C)(C)C)cc1 [I-368] | > 10000
> 75 | 10 to 100 | < 100 | C#Cc1ccc(CNC(=O)[C@@H]2C[C@@H](O)CN2C(=O)[C@@H](NC(=O)CCCCS(=O)(=O)NC(=O)c2nc(N(C)c3cc(C)c(Nc4nc5ccccc5s4)nn3)ccc2-c2cnn(CC34CC5CC(CC(C5)C3)C4)c2C)C(C)(C)C)cc1 [I-369] | > 10000
> 75 | 10 to 100 | < 100 | Cc1cc(N(C)c2ccc(-c3cnn(CC45CC6CC(CC(C6)C4)C5)c3C)c(C(=O)NS(=O)(=O)CCCC(=O)N[C@H](C(=O)N3C[C@H](O)C[C@H]3C(=O)N[C@@H](C)c3ccc(-c4scnc4C)cc3)C(C)(C)C)n2)nnc1Nc1nc2ccccc2s1 [I-370] | > 10000
> 75 | < 10 | 100 to 1000 | Cc1cc(N(C)c2ccc(-c3cnn(CC45CC6CC(CC(C6)C4)C5)c3C)c(C(=O)NS(=O)(=O)CCCCC(=O)N[C@H](C(=O)N3C[C@H](O)C[C@H]3C(=O)NCc3ccc(-c4scnc4C)cc3)C(C)(C)C)n2)nnc1Nc1nc2ccccc2s1 [I-371] | > 10000
> 75 | 10 to 100 | < 100 | Cc1cc(N(C)c2ccc(-c3cnn(CC45CC6CC(CC(C6)C4)C5)c3C)c(C(=O)NS(=O)(=O)CCCCC(=O)N[C@H](C(=O)N3C[C@H](O)C[C@H]3C(=O)N[C@@H](C)c3ccc(-c4scnc4C)cc3)C(C)(C)C)n2)nnc1Nc1nc2ccccc2s1 [I-372] | > 10000
> 75 | 10 to 100 | > 3000 | Cc1ncsc1-c1ccc([C@H](C)NC(=O)[C@@H]2C[C@@H](O)CN2C(=O)[C@@H](NC(=O)CCNCCS(=O)(=O)NC(=O)c2nc(N3CCc4cccc(C(=O)Nc5nc6cccnc6s5)c4C3)ccc2-c2cnn(CC3CCCCC3)c2C)C(C)(C)C)cc1 [I-376] | > 10000
